According to BindingDB's records for doi:10.1021/jm00105a069 (Schering-Plough, 1991):

assay: Concentration required to cause 50% inhibition of platelet activating factor (PAF)-induced platelet aggregation of human platelet rich plasma when challenged with 25 nM PAF.

With `CCC(=O)N1CCC(=C2c3ccc(Cl)cc3CCc3cccnc32)CC1` as the molecule, how does the IC50 read?
Its IC50 is 2.4 µM.

For `O=C(c1ccccc1)N1CCC(=C2c3ccc(Cl)cc3CCc3cccnc32)CC1`, which IC50 is on record?
Its IC50 is greater than 50 µM.

With `CC(=O)N1CCC(=C2c3cc(F)c(F)cc3CCc3cccnc32)CC1` as the molecule, how does the IC50 read?
The IC50 was 1 µM.

Which IC50 does the source give for `CC(=O)N1CCC(=C2c3ccc(O)cc3CCc3cccnc32)CC1` here?
Its IC50 is 8.7 µM.

Which IC50 does the source give for `CC(=O)N1CCC(=C2c3ccc(F)cc3CCc3cccnc32)CC1` here?
The IC50 was 0.67 µM.

With `CCCC(=O)N1CCC(=C2c3ccc(Cl)cc3CCc3cccnc32)CC1` as the molecule, how does the IC50 read?
The IC50 was 33 µM.

For `CC(=O)N1CCC(=C2c3cc(Cl)c(Cl)cc3CCc3cccnc32)CC1`, which IC50 is on record?
Its IC50 is 1.8 µM.

For `CN1CCC(=C2c3ccccc3CCc3cccnc32)CC1`, which IC50 is on record?
The IC50 was greater than 50 µM.

With `CC(=O)N1CCC(=C2c3ccc(Cl)cc3CCc3cccnc32)CC1` as the molecule, how does the IC50 read?
Its IC50 is 0.61 µM.

With `CC(=O)N1CCC(=C2c3cc(Cl)ccc3CCc3cccnc32)CC1` as the molecule, how does the IC50 read?
The IC50 was 3.4 µM.

For `CC(=O)N1CCC(=C2c3ccc(C)cc3CCc3cccnc32)CC1`, which IC50 is on record?
Its IC50 is 1 µM.

Which IC50 does the source give for `CC(=O)N1CCC(=C2c3ccccc3CCc3ccccc32)CC1` here?
The IC50 was 41 µM.

For `CC(=O)N1CCC(=C2c3ccc(Br)cc3CCc3cccnc32)CC1`, which IC50 is on record?
The IC50 was 0.81 µM.

Which IC50 does the source give for `CC(=O)N(C)CC/C=C1/c2ccc(Cl)cc2CCc2cccnc21` here?
Its IC50 is greater than 50 µM.

With `CC(C)(C)C(=O)N1CCC(=C2c3ccc(Cl)cc3CCc3cccnc32)CC1` as the molecule, how does the IC50 read?
Its IC50 is greater than 50 µM.

Which IC50 does the source give for `CC(=O)N1CCC(=C(c2ccc(Cl)cc2)c2ccccn2)CC1` here?
The IC50 was 28 µM.

Which IC50 does the source give for `COc1cc([C@@H]2CC[C@@H](c3cc(OC)c(OC)c(OC)c3)O2)cc(OC)c1OC` here?
Its IC50 is 1.5 µM.

For `CC(=O)C1CCC(=C2c3ccc(Cl)cc3CCc3cccnc32)CC1` (centres undefined), which IC50 is on record?
Its IC50 is greater than 50 µM.

With `O=CN1CCC(=C2c3ccc(Cl)cc3CCc3cccnc32)CC1` as the molecule, how does the IC50 read?
Its IC50 is 13 µM.

With `CC(=O)N1CCC(=C2c3cc(F)ccc3CCc3cccnc32)CC1` as the molecule, how does the IC50 read?
The IC50 was 0.82 µM.

With `CC(=O)N(C)CC/C=C1\c2ccc(Cl)cc2CCc2cccnc21` as the molecule, how does the IC50 read?
Its IC50 is greater than 50 µM.

With `COc1ccc2c(c1)CCc1cccnc1C2=C1CCN(C(C)=O)CC1` as the molecule, how does the IC50 read?
The IC50 was 3.4 µM.

For `CC(=O)N1CCC(=C2c3ccccc3CCc3cccnc32)CC1`, which IC50 is on record?
The IC50 was 1.4 µM.

For `CN(C)CCC(c1ccc(Cl)cc1)c1ccccn1` (centres undefined) [clorfeniramina], which IC50 is on record?
Its IC50 is greater than 50 µM.
